From patent US20130143894A1 (vadel Pharma Inc., priority 2010, published 2013)
Structures can show the parent of a compound that is named as a salt.

What was measured:
[1] = Safety / tolerability in the relative bioavailability study; format: in vivo, human; conditions: oral spray doses of 10 mg, 20 mg, 30 mg and single oral dose of 25 mg (1×25 mg tablet), healthy adult subjects, under fed conditions
Experimental: Assessments include evaluation of changes in orthostatic hypotension, oral irritation, vital sign assessments, 12-lead electrocardiogram (ECG), and clinical assessments.
After dosing, the following activities were completed: • Both objective and subjective oral irritation assessments were performed immediately after dosing and at one hour after dose administration. • A fast was maintained until at least four hours after dosing. During the study confinement period, fluid consumption resumed no sooner than one hour after dose administration. […]
• Blood sample collections were obtained as per the profile. • Supine and standing blood pressure and heart rate was measured at approximately 24 hours after each dose. • All subjects were evaluated for the presence of any adverse events prior to release from the study site. • Prior to release, subjects were evaluated to ensure it was safe for them to be released from the study site. • Subjects were released from the study site at approximately 24 hours after dose administration.

[2] = cited from earlier work

Row | Structure (SMILES) | tolerability [1] | absolute bioavailability ([2]; after oral administration (tablet)) [%] | mean steady state volume of distribution (Vss) ([2]; in vivo) [L]
1 | CCCc1nn(C)c2c(=O)[nH]c(-c3cc(S(=O)(=O)N4CCN(C)CC4)ccc3OCC)nc12 [sildenafil citrate] | well tolerated | – | –
2 | CCCc1nn(C)c2c(=O)[nH]c(-c3cc(S(=O)(=O)N4CCN(C)CC4)ccc3OCC)nc12 [sildenafil, 1-[[3-(6,7-dihydro-1-methyl-7-oxo-3-propyl-1H-pyrazolo[4,3-d]pyrimidin-5-yl)-4-ethoxyphenyl]sulfonyl]-4-methylpiperazine] | – | 41 | 105
